Measurements taken from ChEMBL document CHEMBL1125282, “Evaluation of desferrithiocin and its synthetic analogues as orally effective iron chelators” (1991).

What was measured:
Format in all cases: functional
Rattus norvegicus [1] = test: Total iron output induced by the compound (oral administration) and bile duct cannulated rat and the drug-promoted iron excretion was monitored in the bile at 9 h
Rattus norvegicus [2] = test: Total iron output induced by the compound (oral administration) and bile duct cannulated rat and the drug-promoted iron excretion was monitored in the bile at 3h; note: test concentration or dose not given here
Rattus norvegicus [3] = test: Total iron output induced by the compound (oral administration) and bile duct cannulated rat and the drug-promoted iron excretion was monitored in the bile at 15 hr; note: test concentration or dose not given here
Rattus norvegicus [4] = test: Total iron output induced by the compound (oral administration) and bile duct cannulated rat and the drug-promoted iron excretion was monitored in the bile at 18 h
Rattus norvegicus [5] = test: Total iron output induced by the compound (oral administration) and bile duct cannulated rat and the drug-promoted iron excretion was monitored in the bile at 12 hr
Rattus norvegicus [6] = test: Total iron output induced by the compound (oral administration) and bile duct cannulated rat and the drug-promoted iron excretion was monitored in the bile at 6 hr; note: test concentration or dose not given here
Rattus norvegicus [7] = test: Total iron output induced by the compound (oral administration) and bile duct cannulated rat and the drug-promoted iron excretion was monitored in the bile at 21 hr; note: test concentration or dose not given here
Rattus norvegicus [8] = test: Total iron output induced by the compound (oral administration) and bile duct cannulated rat and the drug-promoted iron excretion was monitored in the bile at 24 hr
Rattus norvegicus [9] = test: Total iron output induced by the compound (oral administration) and bile duct cannulated rat and the drug-promoted iron excretion was monitored in the urine at 24 hr
Rattus norvegicus [10] = test: Total iron output induced by the compound (sc administration) and bile duct cannulated rat and the drug-promoted iron excretion was monitored in the bile at 6 hr
Rattus norvegicus [11] = test: Total iron output induced by the compound (sc administration) and bile duct cannulated rat and the drug-promoted iron excretion was monitored in the bile at 3h
Rattus norvegicus [12] = test: Total iron output induced by the compound (sc administration) and bile duct cannulated rat and the drug-promoted iron excretion was monitored in the bile at 21 hr
Rattus norvegicus [13] = test: Total iron output induced by the compound (sc administration) and bile duct cannulated rat and the drug-promoted iron excretion was monitored in the urine at 24 hr
Rattus norvegicus [14] = test: Total iron output induced by the compound (sc administration) and bile duct cannulated rat and the drug-promoted iron excretion was monitored in the bile at 24 hr
Rattus norvegicus [15] = test: Total iron output induced by the compound (sc administration) and bile duct cannulated rat and the drug-promoted iron excretion was monitored in the bile at 12 hr
Rattus norvegicus [16] = test: Total iron output induced by the compound (sc administration) and bile duct cannulated rat and the drug-promoted iron excretion was monitored in the bile at 15 hr
Rattus norvegicus [17] = test: Total iron output induced by the compound (sc administration) and bile duct cannulated rat and the drug-promoted iron excretion was monitored in the bile at 9 h
Rattus norvegicus [18] = test: Total iron output induced by the compound (sc administration) and bile duct cannulated rat and the drug-promoted iron excretion was monitored in the bile at 18 h

Structure (SMILES)	Total iron output (Rattus norvegicus [1])	Total iron output (Rattus norvegicus [2])	Total iron output (Rattus norvegicus [3])	Total iron output (Rattus norvegicus [4])	Total iron output (Rattus norvegicus [5])	Total iron output (Rattus norvegicus [6])	Total iron output (Rattus norvegicus [7])	Total iron output (Rattus norvegicus [8])	Total iron output (Rattus norvegicus [9])	Total iron output (Rattus norvegicus [10])	Total iron output (Rattus norvegicus [11])	Total iron output (Rattus norvegicus [12])	Total iron output (Rattus norvegicus [13])	Total iron output (Rattus norvegicus [14])	Total iron output (Rattus norvegicus [15])	Total iron output (Rattus norvegicus [16])	Total iron output (Rattus norvegicus [17])	Total iron output (Rattus norvegicus [18])
C[C@]1(C(=O)[O-])CSC(c2ncccc2O)=N1.[Na+] [DESFERRITHIOCIN SODIUM]	111.7 µg/kg	21.8 µg/kg	135.9 µg/kg	146.8 µg/kg	125.8 µg/kg	70 µg/kg	153.2 µg/kg	159.3 µg/kg	38.43 µg/kg	–	–	–	–	–	–	–	–	–
COC(=O)[C@@H]1CSC(c2ncccc2O)=N1	59.9 µg/kg	42.9 µg/kg	74.7 µg/kg	81 µg/kg	68.7 µg/kg	53.3 µg/kg	85.3 µg/kg	93.3 µg/kg	18.7 µg/kg	–	–	–	–	–	–	–	–	–
O=C(O)[C@@H]1CSC(c2ncccc2O)=N1	154 µg/kg	28.7 µg/kg	194 µg/kg	201.3 µg/kg	182.3 µg/kg	98.2 µg/kg	209.6 µg/kg	217.2 µg/kg	14.1 µg/kg	–	–	–	–	–	–	–	–	–
O=C([O-])[C@@H]1CSC(c2ccccn2)=N1.[Na+]	26.2 µg/kg	7.1 µg/kg	42.2 µg/kg	49.6 µg/kg	34.9 µg/kg	16.6 µg/kg	56.8 µg/kg	62.1 µg/kg	11.9 µg/kg	–	–	–	–	–	–	–	–	–
C[C@]1(C(=O)NCCCCNCCCNC(=O)[C@@]2(C)CSC(c3ncccc3O)=N2)CSC(c2ncccc2O)=N1	45.2 µg/kg	13.2 µg/kg	65.8 µg/kg	74 µg/kg	56.6 µg/kg	30 µg/kg	82.2 µg/kg	92.8 µg/kg	18 µg/kg	–	–	–	–	–	–	–	–	–
CC(=O)N(O)CCCCCNC(=O)CCC(=O)N(O)CCCCCNC(=O)CCC(=O)N(O)CCCCCN [DEFEROXAMINE]	76.8 µg/kg	14.7 µg/kg	110.8 µg/kg	119.8 µg/kg	97.1 µg/kg	43.9 µg/kg	128.7 µg/kg	135 µg/kg	16.5 µg/kg	105.9 µg/kg	43.6 µg/kg	219.8 µg/kg	49.2 µg/kg	228.4 µg/kg	173.9 µg/kg	196.2 µg/kg	152.8 µg/kg	210.7 µg/kg
COC(=O)[C@H]1N=C(c2ncccc2O)O[C@@H]1C	20.2 µg/kg	11.3 µg/kg	43.7 µg/kg	49.4 µg/kg	37.3 µg/kg	21.3 µg/kg	55.1 µg/kg	60.8 µg/kg	7.6 µg/kg	–	–	–	–	–	–	–	–	–
O=C(O)[C@@H]1CSC(c2ccccn2)=N1	31.2 µg/kg	11.8 µg/kg	47.1 µg/kg	56.2 µg/kg	39.5 µg/kg	22.5 µg/kg	64.1 µg/kg	71.9 µg/kg	14.2 µg/kg	–	–	–	–	–	–	–	–	–
C[C@]1(C(=O)O)CSC(c2ncccc2O)=N1 [DESFERRITHIOCIN]	205.3 µg/kg	64.5 µg/kg	245.6 µg/kg	253.7 µg/kg	234.8 µg/kg	143 µg/kg	263.1 µg/kg	268.5 µg/kg	27 µg/kg	–	–	–	–	–	–	–	–	–
O=C([O-])[C@@H]1CSC(c2ccccc2O)=N1.[Na+]	143.8 µg/kg	28.6 µg/kg	210.6 µg/kg	226.8 µg/kg	184.9 µg/kg	91.6 µg/kg	238.1 µg/kg	246.9 µg/kg	18.67 µg/kg	–	–	–	–	–	–	–	–	–
O=C([O-])[C@@H]1CSC(c2ncccc2O)=N1.[Na+]	40.7 µg/kg	9 µg/kg	56.3 µg/kg	65.3 µg/kg	48.5 µg/kg	28.1 µg/kg	74.8 µg/kg	81.9 µg/kg	21 µg/kg	–	–	–	–	–	–	–	–	–
